# Measured values published in US6437184B1, “Oxime compounds, their use, and intermediates for their production” (Sumitomo Chemical Company, Limited, priority 1997, dated 2002).
# Experiments:
# Heliothis virescens = assay: Insecticidal test against Heliothis virescens; format: in vivo; conditions: 168 h, 100 ppm water dilution, 0.2 ml on surface of artificial diet, second-instar larvae, after 7 days
# Experimental: A water dilution (100 ppm) of a test compound formulation obtained according to Formulation Example 1 was added dropwise at a volume of 0.2 ml and uniformly spread over the surface of an artificial diet having a weight of 3 g, which had been prepared in a 30 ml plastic cup. After air drying, one second-instar larva of Heliothis virescens was set free in each cup. Ten larvae were used for each treatment. After 7 days, the mortality of the larvae was determined.
# Tetranychus urticae = assay: Acaricidal test against Tetranychus urticae; format: in vivo; conditions: 500 ppm water dilution, 15 ml sprayed over brush bean with female adults set free 6 days before; after 8 days
# Experimental: About twenty female adults of Tetranychus urticae were set free on brush bean (Phaseolus vulgaris) in the primary leaf stage, which had been potted in a plastic cup for 7 days after the seeding. After 6 days, a 200-fold water dilution (500 ppm) of a test compound formulation obtained according to Formulation Example 1 or 2 was sprayed at a volume of 15 ml over the plant. After 8 days, each compound was evaluated for acaricidal activity on the following criteria.
# −: almost no damage and completely no surviving mites
# ±: slight damage and some few surviving mites
# +: rather smaller damage and a rather fewer surviving mites than non-treatment case
# ++: same as non-treatment case
# Plutella xylostella = assay: Insecticidal test against Plutella xylostella; format: in vivo; conditions: 96 h, 50 ppm water dilution sprayed over potted cabbages, 25 ml per pot, third-instar larvae, after 4 days, read-out: mortality
# Experimental: To a water dilution (50 ppm) of a test compound formulation obtained according to Formulation Example 1 was added a spreading agent (New RINOU available from Nihon Noyaku K.K.) at a dilution ratio of 3000-fold. The dilution was sprayed over potted cabbages at the four to five leaf stage at a volume of 25 ml per pot. After the treated plants were air dried, ten third-instar larvae of Plutella xylostella were set free on each pot. After 4 days, the mortality was determined.
# Cydia pomonella = assay: Insecticidal test against Cydia pomonella; format: in vivo; conditions: 168 h, 100 ppm water dilution, 0.2 ml on surface of artificial diet, eggs just before hatching, after 7 days
# Experimental: A water dilution (100 ppm) of a test compound formulation obtained according to Formulation Example 1 was added dropwise at a volume of 0.2 ml and spread over the surface of an artificial diet having a weight of 3 g, which had been prepared in a 30 ml polyethylene cup. After air drying, placed in the cup was a piece of wax paper (about 2.5 cm square) having about 20 eggs which had been laid by Cydia pomonella and were just before hatching. Four pieces of such wax paper were used for each treatment. After 7 days, the mortality of the larvae was determined.
# Helicoverpa armigera = assay: Insecticidal test against Helicoverpa armigera; format: in vivo; conditions: 120 h, 100 ppm water dilution, cotton leaf fragment immersed 10 seconds, third-instar larvae, after 5 days
# Experimental: A cotton leaf fragment (diameter, 5 cm) was immersed for 10 seconds Lin a water dilution (100 ppm) of a test compound formulation obtained according to Formulation Example 1. This fragment was taken out from the dilution, air dried, and placed in a polyethylene cup having a diameter of 5.5 cm. One third-instar larva of Helicoverpa armigera was set free in each cup. Ten larvae were used for each treatment. After 5 days, the mortality of the larvae was determined.
structure (smiles),measurement,setting,value
"ON=CCOCCCCOc1c(Cl)cc(OCC=C(Cl)Cl)cc1Cl [(148), 4-(2,6-dichloro-4-(3,3-dichloro-2-propenyloxy)phenoxy)butyloxyacetaldehyde oxime]",melting point,,62.8 °C
"N#Cc1ccc(C=NOCCCCOc2c(Cl)cc(OCC=C(Cl)Cl)cc2Cl)cc1 [(691), 4-cyanobenzaldehyde O-(4-(2,6-dichloro-4-(3,3-dichloro-2-propenyloxy)phenoxy)butyl)oxime]",melting point,,71.2 °C
"ClC(Cl)=CCOc1cc(Cl)c(OCCOc2ccc(C=NOCC=C(Br)Br)cc2)c(Cl)c1 [(282), 4-(2-(2,6-dichloro-4-(3,3-dichloro-2-propenyloxy)phenoxy)-ethoxy)benzaldehyde O-(3,3-dibromo-2-propenyl)oxime]",melting point,,90.8 °C
"ClC(Cl)=CCOc1cc(Cl)c(OCCCCCOCC=NOCC(Cl)(Cl)Cl)c(Cl)c1 [(160), 5-(2,6-dichloro-4-(3,3-dichloro-2-propenyloxy)phenoxy)pentyloxyacetaldehyde O-(2,2,2-trichloroethyl)oxime]",mortality at 100 µg/mL,Heliothis virescens,≥ 80%
"ON=Cc1ccc(OCCCCCOc2c(Cl)cc(OCC=C(Cl)Cl)cc2Cl)cc1 [(333), 4-(5-(2,6-dichloro-4-(3,3-dichloro-2-propenyloxy)phenoxy)pentyloxy)benzaldehyde oxime]",melting point,,90.1 °C
"CCON=C(C)c1ccc(OCCCCCOc2c(Cl)cc(OCC=C(Cl)Cl)cc2Cl)cc1 [(321), 4′-(5-(2,6-dichloro-4-(3,3-dichloro-2-propenyloxy)phenoxy)-pentyloxy)acetophenone O-ethyloxime]",melting point,,56.1 °C
"CC(=NO)c1ccc(OCCOc2c(Cl)cc(OCC=C(Cl)Cl)cc2Cl)cc1 [(337), 4′-(2-(2,6-dichloro-4-(3,3-dichloro-2-propenyloxy)phenoxy)-ethoxy)acetophenone oxime]",melting point,,121 °C
"ClC(Cl)=CCOc1cc(Cl)c(OCCCCOCC=NOCC=C(Br)Br)c(Cl)c1 [(3), 4-(2,6-dichloro-4-(3,3-dichloro-2-propenyloxy)phenoxy)butyloxyacetaldehyde O-(3,3-dibromo-2-propenyl)oxime]",mortality at 100 µg/mL,Heliothis virescens,≥ 80%
"CCCON=C(C)c1ccc(COc2c(Cl)cc(OCC=C(Cl)Cl)cc2Cl)cc1 [(346), 4′-(2,6-dichloro-4-(3,3-dichloro-2-propenyloxy)phenoxymethyl)acetophenone O-propyloxime]",mortality at 100 µg/mL,Heliothis virescens,≥ 80%
"CCON=Cc1ccc(COc2c(Cl)cc(OCC=C(Cl)Cl)cc2Cl)cc1 [(326), 4-(2,6-dichloro-4-(3,3-dichloro-2-propenyloxy)phenoxymethyl)benzaldehyde O-ethyloxime]",melting point,,84.8 °C
"ClC(Cl)=CCOc1cc(Cl)c(OCc2ccc(C=NOCc3ccccc3)cc2)c(Cl)c1 [(313), 4-(2,6-dichloro-4-(3,3-dichloro-2-propenyloxy)phenoxymethyl)benzaldehyde O-benzyloxime]",melting point,,70.3 °C
"CC(=NOCCCCCOc1c(Cl)cc(OCC=C(Cl)Cl)cc1Cl)C(C)(C)C [(559), 3,3-dimethyl-2-butanone O-(5-(2,6-dichloro-4-(3,3-dichloro-2-propenyloxy)phenoxy)pentyl)oxime]",mortality at 100 µg/mL,Heliothis virescens,≥ 80%
"ClC(Cl)=CCON=CCOc1ccc(COc2c(Cl)cc(OCC=C(Cl)Cl)cc2Cl)cc1 [(360), 2-(4-(2,6-dichloro-4-(3,3-dichloro-2-propenyloxy)phenoxymethyl)phenoxy)acetaldehyde O-(3,3-dichloro-2-propenyl)oxime]",melting point,,87.9 °C
"CC(=NOCCCCCCOc1c(Cl)cc(OCC=C(Cl)Cl)cc1Cl)C(C)C [(583), 3-methyl-2-butanone O-(6-(2,6-dichloro-4-(3,3-dichloro-2-propenyloxy)phenoxy)hexyl)oxime]",acaricidal activity,Tetranychus urticae,“−” or “±”
O=[N+]([O-])c1ccc(ON=CCCCCOc2c(Cl)cc(OCC=C(Cl)Cl)cc2Cl)c([N+](=O)[O-])c1,melting point,,65.2 °C
"ClC(Cl)=CCON=CCCCCCOc1c(Cl)cc(OCC=C(Cl)Cl)cc1Cl [(76), 6-(2,6-dichloro-4-(3,3-dichloro-2-propenyloxy)phenoxy)hexanal O-(3,3-dichloro-2-propenyl)oxime]",mortality at 100 µg/mL,Heliothis virescens,≥ 80%
same,mortality at 50 µg/mL,Plutella xylostella,≥ 80%
same,mortality at 100 µg/mL,Cydia pomonella,≥ 80%
"ClC(Cl)=CCON=Cc1ccc(COc2c(Cl)cc(OCC=C(Br)Br)cc2Cl)cc1 [(280), 4-(2,6-dichloro-4-(3,3-dibromo-2-propenyloxy)phenoxymethyl)benzaldehyde O-(3,3-dichloro-2-propenyl)oxime]",melting point,,88.2 °C
"CC(=NOCCCCCOc1c(Cl)cc(OCC=C(Cl)Cl)cc1Cl)c1ccc(Cl)nc1 [(569), 6-chloro-3-pyridyl methyl ketone O-(5-(2,6-dichloro-4-(3,3-dichloro-2-propenyloxy)phenoxy)pentyl)oxime]",melting point,,67.7 °C
"ClC(Cl)=CCOc1cc(Cl)c(OCCCCOCC=NOCc2ccccc2)c(Cl)c1 [(5), 4-(2,6-dichloro-4-(3,3-dichloro-2-propenyloxy)phenoxy)butyloxyacetaldehyde O-benzyloxime]",mortality at 100 µg/mL,Heliothis virescens,≥ 80%
"ClC(Cl)=CCON=Cc1ccc(OCCCOc2c(Cl)cc(OCC=C(Cl)Cl)cc2Cl)cc1 [(283), 4-(3-(2,6-dichloro-4-(3,3-dichloro-2-propenyloxy)phenoxy)propyloxy)benzaldehyde O-(3,3-dichloro-2-propenyl)oxime]",mortality at 50 µg/mL,Plutella xylostella,≥ 80%
same,mortality at 100 µg/mL,Helicoverpa armigera,≥ 80%
"CC(COCCCCCOc1c(Cl)cc(OCC=C(Cl)Cl)cc1Cl)=NOC(=O)C(C)(C)C [(178), 5-(2,6-dichloro-4-(3,3-dichloro-2-propenyloxy)phenoxy)pentyloxyacetone O-pivaloyloxime]",acaricidal activity,Tetranychus urticae,“−” or “±”
"CCc1cc(OCC=C(Cl)Cl)cc(CC)c1OCCCCOCC=NOC(C)(C)C [(11), 4-(2,6-diethyl-4-(3,3-dichloro-2-propenyloxy)phenoxy)butyloxyacetaldehyde O-tert-butyloxime]",mortality at 100 µg/mL,Heliothis virescens,≥ 80%
same,mortality at 100 µg/mL,Cydia pomonella,≥ 80%
same,mortality at 100 µg/mL,Helicoverpa armigera,≥ 80%
"CCON=C(C)c1ccc(OCCCOc2c(Cl)cc(OCC=C(Cl)Cl)cc2Cl)cc1 [(293), 4′-(3-(2,6-dichloro-4-(3,3-dichloro-2-propenyloxy)phenoxy)propyloxy)acetophenone O-ethyloxime]",mortality at 100 µg/mL,Cydia pomonella,≥ 80%
same,mortality at 100 µg/mL,Helicoverpa armigera,≥ 80%
"CC(CC(C)(C)C)=NOCCCCCOc1c(Cl)cc(OCC=C(Cl)Cl)cc1Cl [(592), 4,4-dimethyl-2-pentanone O-(5-(2,6-dichloro-4-(3,3-dichloro-2-propenyloxy)phenoxy)pentyl)oxime]",acaricidal activity,Tetranychus urticae,“−” or “±”
"ClC(Cl)=CCOc1cc(Cl)c(OCCCON=Cc2ccccc2)c(Cl)c1 [(523), benzaldehyde O-(3-(2,6-dichloro-4-(3,3-dichloro-2-propenyloxy)phenoxy)propyl)oxime]",mortality at 100 µg/mL,Heliothis virescens,≥ 80%
same,mortality at 50 µg/mL,Plutella xylostella,≥ 80%
"CC(=NOC(C)(C)C)c1ccc(OCCCCOc2c(Cl)cc(OCC=C(Cl)Cl)cc2Cl)cc1 [(298), 4′-(4-(2,6-dichloro-4-(3,3-dichloro-2-propenyloxy)phenoxy)butyloxy)acetophenone O-tert-butyloxime]",melting point,,56.4 °C
"CON=Cc1ccc(COc2c(Cl)cc(OCC=C(Cl)Cl)cc2Cl)cc1 [(311), 4-(2,6-dichloro-4-(3,3-dichloro-2-propenyloxy)phenoxymethyl)benzaldehyde O-methyloxime]",melting point,,95.9 °C
"CCON=C(C)COc1c(Cl)cc(OCC=C(Cl)Cl)cc1Cl [(30), (2,6-dichloro-4-(3,3-dichloro-2-propenyloxy)phenoxy)acetone O-ethyloxime]",melting point,,65.4 °C
"ClC(Cl)=CCON=Cc1ccc(COc2c(Cl)cc(OCC=C(Cl)Cl)cc2Cl)cc1 [(279), 4-(2,6-dichloro-4-(3,3-dichloro-2-propenyloxy)phenoxymethyl)benzaldehyde O-(3,3-dichloro-2-propenyl)oxime]",mortality at 50 µg/mL,Plutella xylostella,≥ 80%
same,mortality at 100 µg/mL,Cydia pomonella,≥ 80%
same,mortality at 100 µg/mL,Helicoverpa armigera,≥ 80%
